In patent US11497752B2, “Compounds and uses thereof” (Foghorn Therapeutics Inc., priority 2018, dated 2022):
pIC50: −log10 of the molar value.

Experiments:
BRG-1 = BRG-1 (Homo sapiens, UniProt P51532); assay: ATPase catalytic activity of BRG-1 (ADP-Glo in vitro biochemical assay); conditions: for BRG1 Max % Inhibition: Table 6
BRM = BRM (Homo sapiens, UniProt P51531); assay: ATPase catalytic activity of BRM (ADP-Glo in vitro biochemical assay); conditions: for BRM Max % Inhibition: Table 6
Chain of BRM (P51531 whole entry): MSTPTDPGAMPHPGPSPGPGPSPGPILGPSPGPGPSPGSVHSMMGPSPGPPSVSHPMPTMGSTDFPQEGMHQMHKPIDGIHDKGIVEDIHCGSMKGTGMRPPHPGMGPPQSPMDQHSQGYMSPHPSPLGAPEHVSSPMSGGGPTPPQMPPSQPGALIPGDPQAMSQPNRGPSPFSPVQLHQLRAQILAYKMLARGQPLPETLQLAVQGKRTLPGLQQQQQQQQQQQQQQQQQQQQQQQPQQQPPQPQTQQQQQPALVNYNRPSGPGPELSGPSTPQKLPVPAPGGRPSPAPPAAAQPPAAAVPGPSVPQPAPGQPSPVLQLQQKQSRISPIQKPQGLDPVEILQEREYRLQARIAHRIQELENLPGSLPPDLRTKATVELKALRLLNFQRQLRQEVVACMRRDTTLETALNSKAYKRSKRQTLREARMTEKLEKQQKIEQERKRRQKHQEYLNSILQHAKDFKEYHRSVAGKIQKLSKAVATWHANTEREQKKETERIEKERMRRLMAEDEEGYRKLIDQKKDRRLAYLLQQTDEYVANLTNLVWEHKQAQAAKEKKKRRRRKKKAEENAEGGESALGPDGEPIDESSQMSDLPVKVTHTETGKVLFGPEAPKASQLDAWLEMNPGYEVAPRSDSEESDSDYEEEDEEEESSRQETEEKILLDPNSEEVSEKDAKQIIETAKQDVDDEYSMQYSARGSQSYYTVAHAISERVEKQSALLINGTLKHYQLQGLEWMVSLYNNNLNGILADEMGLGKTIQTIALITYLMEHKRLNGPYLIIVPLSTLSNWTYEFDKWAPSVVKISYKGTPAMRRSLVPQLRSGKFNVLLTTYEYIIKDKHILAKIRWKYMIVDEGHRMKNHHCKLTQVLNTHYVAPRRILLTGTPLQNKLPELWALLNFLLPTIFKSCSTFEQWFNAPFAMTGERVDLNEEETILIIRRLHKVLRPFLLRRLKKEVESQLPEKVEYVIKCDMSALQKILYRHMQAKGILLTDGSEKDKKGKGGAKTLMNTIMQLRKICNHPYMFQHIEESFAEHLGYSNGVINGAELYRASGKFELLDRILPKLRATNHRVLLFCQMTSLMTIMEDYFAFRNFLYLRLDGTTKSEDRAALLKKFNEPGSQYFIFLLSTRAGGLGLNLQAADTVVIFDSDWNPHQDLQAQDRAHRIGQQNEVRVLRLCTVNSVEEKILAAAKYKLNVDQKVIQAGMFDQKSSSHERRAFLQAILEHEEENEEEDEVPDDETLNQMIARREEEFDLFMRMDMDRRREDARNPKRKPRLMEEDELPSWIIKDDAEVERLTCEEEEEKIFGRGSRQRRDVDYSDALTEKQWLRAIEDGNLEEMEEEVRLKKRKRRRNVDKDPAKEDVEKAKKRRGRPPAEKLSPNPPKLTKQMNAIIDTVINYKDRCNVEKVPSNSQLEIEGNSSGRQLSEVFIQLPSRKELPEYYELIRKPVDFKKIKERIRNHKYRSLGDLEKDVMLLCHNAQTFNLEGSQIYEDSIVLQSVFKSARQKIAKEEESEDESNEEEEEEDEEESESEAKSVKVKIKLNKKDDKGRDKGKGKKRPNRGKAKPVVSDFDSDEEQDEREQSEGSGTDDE

Chain of BRG-1 (P51532 whole entry): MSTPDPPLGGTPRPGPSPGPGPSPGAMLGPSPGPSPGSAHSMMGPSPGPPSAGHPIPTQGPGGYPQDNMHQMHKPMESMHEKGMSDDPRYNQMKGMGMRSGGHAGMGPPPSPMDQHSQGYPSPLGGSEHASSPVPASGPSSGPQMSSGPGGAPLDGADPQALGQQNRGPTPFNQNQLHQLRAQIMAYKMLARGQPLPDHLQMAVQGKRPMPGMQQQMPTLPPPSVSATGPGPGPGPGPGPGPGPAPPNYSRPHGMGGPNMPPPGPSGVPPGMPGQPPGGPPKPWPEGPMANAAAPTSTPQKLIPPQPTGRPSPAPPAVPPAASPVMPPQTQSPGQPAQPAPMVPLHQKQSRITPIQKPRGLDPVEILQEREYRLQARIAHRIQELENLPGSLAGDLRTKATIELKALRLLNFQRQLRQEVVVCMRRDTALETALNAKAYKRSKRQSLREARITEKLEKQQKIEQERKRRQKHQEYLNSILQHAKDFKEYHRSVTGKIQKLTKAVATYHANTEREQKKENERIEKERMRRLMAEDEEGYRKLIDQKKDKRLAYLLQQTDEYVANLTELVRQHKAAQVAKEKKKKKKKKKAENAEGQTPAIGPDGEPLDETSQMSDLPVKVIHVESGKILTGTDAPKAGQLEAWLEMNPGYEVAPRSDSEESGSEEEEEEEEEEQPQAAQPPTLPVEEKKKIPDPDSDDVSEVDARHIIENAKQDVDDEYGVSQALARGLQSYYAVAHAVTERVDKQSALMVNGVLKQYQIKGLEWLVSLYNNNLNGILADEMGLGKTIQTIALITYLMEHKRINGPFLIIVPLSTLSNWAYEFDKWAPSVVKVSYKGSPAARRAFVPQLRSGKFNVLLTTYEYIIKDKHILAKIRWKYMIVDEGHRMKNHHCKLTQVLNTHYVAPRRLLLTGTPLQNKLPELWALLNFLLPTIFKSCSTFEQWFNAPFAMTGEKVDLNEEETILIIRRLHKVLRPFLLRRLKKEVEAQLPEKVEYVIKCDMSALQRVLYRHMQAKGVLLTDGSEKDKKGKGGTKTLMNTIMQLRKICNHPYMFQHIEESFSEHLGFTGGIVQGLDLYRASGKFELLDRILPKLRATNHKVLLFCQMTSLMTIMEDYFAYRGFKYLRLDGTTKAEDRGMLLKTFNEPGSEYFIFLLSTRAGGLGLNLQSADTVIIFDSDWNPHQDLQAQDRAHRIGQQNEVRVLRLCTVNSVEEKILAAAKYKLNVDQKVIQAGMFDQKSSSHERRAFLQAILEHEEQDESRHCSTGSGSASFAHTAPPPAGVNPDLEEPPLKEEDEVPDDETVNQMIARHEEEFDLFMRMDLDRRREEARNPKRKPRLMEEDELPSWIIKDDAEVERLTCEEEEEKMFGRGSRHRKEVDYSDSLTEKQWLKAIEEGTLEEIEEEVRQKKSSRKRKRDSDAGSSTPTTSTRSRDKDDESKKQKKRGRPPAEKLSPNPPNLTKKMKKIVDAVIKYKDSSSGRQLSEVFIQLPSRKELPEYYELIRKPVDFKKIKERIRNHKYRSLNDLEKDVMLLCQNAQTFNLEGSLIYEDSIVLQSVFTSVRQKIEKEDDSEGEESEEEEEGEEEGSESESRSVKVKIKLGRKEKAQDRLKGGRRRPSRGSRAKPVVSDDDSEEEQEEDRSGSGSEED

pIC50 (BRG-1) | BRG1 Max % Inhibition (BRG-1) [%] | pIC50 (BRM) | BRM Max % Inhibition (BRM) [%] | SMILES
5.00 to 6.00 | >70 | 6.00 to 7.00 | >70 | O=C(CNC(=O)c1ccc2[nH]ncc2c1)Nc1nc(-c2cccc(-c3ccncc3)c2)cs1 [Compound 96, N-(2-oxo-2-((4-(3-(pyridin-4-yl)phenyl)thiazol-2-yl)amino)ethyl)-1H-indazole-5-carboxamide]
6.00 to 7.00 | >70 | 6.00 to 7.00 | >70 | CSCC[C@H](NC(=O)c1ccccc1)C(=O)Nc1nc(-c2cccc(-c3ccncc3)c2)cs1 [Compound 97, (S)-N-(4-(methylthio)-1-oxo-1-((4-(3-(pyridin-4-yl)phenyl)thiazol-2-yl)amino)butan-2-yl)benzamide]
6.00 to 7.00 | >70 | 6.00 to 7.00 | >90 | CS(=O)(=O)c1cccc(C(=O)NCC(=O)Nc2nc(-c3cccc(-c4nccs4)c3)cs2)c1 [Compound 98, 3-(methylsulfonyl)-N-(2-oxo-2-((4-(3-(thiazol-2-yl)phenyl)thiazol-2-yl)amino)ethyl)benzamide]
> 7.00 | >95 | > 7.00 | >90 | O=C(CNC(=O)c1ccc2c(c1)CCCN2)Nc1nc(-c2cccc(-c3ccncc3)c2)cs1 [Compound 99, N-(2-oxo-2-((4-(3-(pyridin-4-yl)phenyl)thiazol-2-yl)amino)ethyl)-1,2,3,4-tetrahydroquinoline-6-carboxamide]
5.00 to 6.00 | >80 | 6.00 to 7.00 | >80 | NCc1ccc(C(=O)NCC(=O)Nc2nc(-c3cccc(-c4ccncc4)c3)cs2)cc1 [Compound 100, 4-(aminomethyl)-N-(2-oxo-2-((4-(3-(pyridin-4-yl)phenyl)thiazol-2-yl)amino)ethyl)benzamide]
6.00 to 7.00 | >95 | 6.00 to 7.00 | >95 | O=C(CNC(=O)c1ccc2cncn2c1)Nc1nc(-c2cccc(-c3ccncc3)c2)cs1 [Compound 101, N-(2-oxo-2-((4-(3-(pyridin-4-yl)phenyl)thiazol-2-yl)amino)ethyl)imidazo[1,5-a]pyridine-6-carboxamide]
6.00 to 7.00 | >80 | 6.00 to 7.00 | >80 | O=C(CNC(=O)c1cnc2c(c1)CCCN2)Nc1nc(-c2cccc(-c3ccncc3)c2)cs1 [Compound 102, N-(2-oxo-2-((4-(3-(pyridin-4-yl)phenyl)thiazol-2-yl)amino)ethyl)-5,6,7,8-tetrahydro-1,8-naphthyridine-3-carboxamide]
5.00 to 6.00 | >80 | 6.00 to 7.00 | >70 | O=C(CNC(=O)c1ccc(N2CC(O)C2)cc1)Nc1nc(-c2cccc(-c3ccncc3)c2)cs1 [Compound 103, 4-(3-hydroxyazetidin-1-yl)-N-(2-oxo-2-((4-(3-(pyridin-4-yl)\phenyl)thiazol-2-yl)amino)ethyl)benzamide]
> 7.00 | >60 | > 7.00 | >70 | CS(=O)(=O)c1ccnc(C(=O)NCC(=O)Nc2nc(-c3cccc(-c4ccncc4)c3)cs2)c1 [Compound 104, 4-methylsulfonyl-N-[2-oxo-2-[[4-[3-(4-pyridyl)phenyl]thiazol-2-yl]amino]ethyl]pyridine-2-carboxamide]
6.00 to 7.00 | >50 | 6.00 to 7.00 | >80 | O=C(CNC(=O)c1ccc2c(c1)CC(O)CN2)Nc1nc(-c2cccc(-c3ccncc3)c2)cs1 (centres unmarked) [Compound 105, 3-hydroxy-N-[2-oxo-2-[[4-[3-(4-pyridyl)phenyl]thiazol-2-yl]amino]ethyl]-1,2,3,4-tetrahydroquinoline-6-carboxamide]
5.00 to 6.00 | >95 | 6.00 to 7.00 | >95 | CSCC[C@H](NC(=O)c1ccc(N)cc1)C(=O)Nc1nc(-c2ccc(C#N)cc2)cs1 [Compound 107, (S)-4-amino-N-(1-((4-(4-cyanophenyl)thiazol-2-yl)amino)-4-(methylthio)-1-oxobutan-2-yl)benzamide]
6.00 to 7.00 | >90 | 6.00 to 7.00 | >90 | Nc1ccc(C(=O)NCC(=O)Nc2nc(-c3ccc4c(c3)OCCO4)cs2)cc1 [Compound 109, 4-amino-N-(2-((4-(2,3-dihydrobenzo[b][1,4]dioxin-6-yl)thiazol-2-yl)amino)-2-oxoethyl)benzamide]
5.00 to 6.00 | >80 | 6.00 to 7.00 | >80 | COC(=O)N1CCC=C(c2csc(NC(=O)CNC(=O)c3ccc(N)cc3)n2)C1 [Compound 110, methyl 3-(2-(2-(4-aminobenzamido)acetamido)thiazol-4-yl)-5,6-dihydropyridine-1(2H)-carboxylate]
6.00 to 7.00 | >90 | 6.00 to 7.00 | >90 | Nc1ccc(C(=O)NCC(=O)Nc2nc(-c3ccc4c(c3)CCO4)cs2)cc1 [Compound 111, 4-amino-N-(2-((4-(2,3-dihydrobenzofuran-5-yl)thiazol-2-yl)amino)-2-oxoethyl)benzamide]
6.00 to 7.00 | >80 | 6.00 to 7.00 | >90 | Nc1ccc(C(=O)NCC(=O)Nc2nc(-c3ccc4c(c3)OCC4)cs2)cc1 [Compound 112, 4-amino-N-(2-((4-(2,3-dihydrobenzofuran-6-yl)thiazol-2-yl)amino)-2-oxoethyl)benzamide]
5.00 to 6.00 | >80 | 6.00 to 7.00 | >80 | Nc1ccc(C(=O)NCC(=O)Nc2nc(-c3ccccc3O)cs2)cc1 [Compound 114, 4-amino-N-(2-((4-(2-hydroxyphenyl)thiazol-2-yl)amino)-2-oxoethyl)benzamide]
6.00 to 7.00 | >90 | 6.00 to 7.00 | >90 | Nc1ccc(C(=O)NCC(=O)Nc2nc(-c3ccc(O)cc3)cs2)cc1 [Compound 115, 4-amino-N-(2-((4-(4-hydroxyphenyl)thiazol-2-yl)amino)-2-oxoethyl)benzamide]
6.00 to 7.00 | >95 | 6.00 to 7.00 | >95 | CSCC[C@H](NC(=O)c1ccc(N)cc1)C(=O)Nc1nc(-c2cc(C#N)cc(-c3ccccc3)c2)cs1 [Compound 116, (S)-4-amino-N-(1-((4-(5-cyano-[1,1′-biphenyl]-3-yl)thiazol-2-yl)amino)-4-(methylthio)-1-oxobutan-2-yl)benzamide]
5.00 to 6.00 | >90 | 6.00 to 7.00 | >90 | CSCC[C@H](NC(=O)c1ccc(N)cc1)C(=O)Nc1nc(-c2cccc(-c3ccc(CN)cc3)c2)cs1 [Compound 118, (S)-4-amino-N-(1-((4-(4′-(aminomethyl)-[1,1′-biphenyl]-3-yl)thiazol-2-yl)amino)-4-(methylthio)-1-oxobutan-2-yl)benzamide]
5.00 to 6.00 | >95 | 6.00 to 7.00 | >95 | CSCC[C@H](NC(=O)c1ccc(N)cc1)C(=O)Nc1nc(-c2ccc(C#N)c(-c3ccccc3)c2)cs1 [Compound 119, (S)-4-amino-N-(1-((4-(6-cyano-[1,1′-biphenyl]-3-yl)thiazol-2-yl)amino)-4-(methylthio)-1-oxobutan-2-yl)benzamide]
6.00 to 7.00 | >90 | 6.00 to 7.00 | >90 | CSCC[C@H](NC(=O)c1ccc(N)cc1)C(=O)Nc1nc(-c2cccc(CNC(C)=O)c2)cs1 [Compound 120, (S)-N-(1-((4-(3-(acetamidomethyl)phenyl)thiazol-2-yl)amino)-4-(methylthio)-1-oxobutan-2-yl)-4-aminobenzamide]
6.00 to 7.00 | >95 | 6.00 to 7.00 | >95 | CSCC[C@H](NC(=O)c1ccc(N)cc1)C(=O)Nc1nc(-c2ccc(CNC(C)=O)cc2)cs1 [Compound 121, (S)-N-(1-((4-(4-(acetamidomethyl)phenyl)thiazol-2-yl)amino)-4-(methylthio)-1-oxobutan-2-yl)-4-aminobenzamide]
5.00 to 6.00 | >90 | 6.00 to 7.00 | >95 | COC(=O)N1CCC[C@H](c2csc(NC(=O)CNC(=O)c3ccc(N)cc3)n2)C1 [Compound 122, (S)-methyl 3-(2-(2-(4-aminobenzamido)acetamido)thiazol-4-yl)piperidine-1-carboxylate]
6.00 to 7.00 | >80 | 6.00 to 7.00 | >80 | CC(=O)NCc1ccc(-c2cccc(-c3csc(NC(=O)CNC(=O)c4ccc(N)cc4)n3)c2)cc1 [Compound 123, N-(2-((4-(4′-(acetamidomethyl)-[1,1′-biphenyl]-3-yl)thiazol-2-yl)amino)-2-oxoethyl)-4-aminobenzamide]
6.00 to 7.00 | >95 | 6.00 to 7.00 | >95 | CC(=O)NCc1cccc(-c2cccc(-c3csc(NC(=O)CNC(=O)c4ccc(N)cc4)n3)c2)c1 [Compound 124, N-(2-((4-(3′-(acetamidomethyl)-[1,1′-biphenyl]-3-yl)thiazol-2-yl)amino)-2-oxoethyl)-4-aminobenzamide]
> 7.00 | >95 | > 7.00 | >95 | C[C@H](NC(=O)c1ccc(N)cc1)C(=O)Nc1nc(-c2cccc(-c3ccncc3)c2)cs1 [Compound 125, (S)-4-amino-N-(1-oxo-1-((4-(3-(pyridin-4-yl)phenyl)thiazol-2-yl)amino)propan-2-yl)benzamide]
